Laboratory results from patent US5245034A, “Compound having vessel smooth muscle relaxation activity” (Hidaka; Kiroyoshi, priority 1988, dated 1993).
Structures can show the parent of a compound that is named as a salt.

molecular target: Calmodulin-Dependent Phosphodiesterase (Ca^2+ PDE); assay: Calmodulin-Dependent Phosphodiesterase Inhibition (Ca^2+ PDE); type: biochemical, rat; details: [^3 H]-cGMP, 30° C.
Experimental: Phosphodiesterase (Ca^2+ PDE)Ca^2+ PDE was partially purified from the brain of rat by DEAE-Sepharose column chromatography.
Calmodulin was purified from the calf brain using a calmodulin inhibitor W-7 affinity column.
A reaction mixture contained 20 μl of 500 mM Tris-HCl (pH 8.0), 20 μl of 50 mM MgCl2, 20 μl of 2 mM CaCl2 (or 10 mM EGTA), 20 μl of 1 mg/ml bovine serum albumin, PDE, […] of calmodulin, test sample and distilled water to make total volume 200 μl. To the mixture was added 20 μl of 4 μM [^3 H]-cGMP (2.5 μCi/ml), the mixture was incubated at 30° C. for 15 minutes, and then heated in boiling water for 3 to 5 minutes to terminate the reaction, and cooled in ice-water bath. 20 μg of 5'-nucleotidase (Snake venum) was added to the mixture, and the mixture was again incubated at 30° C. for 10 minutes. After addition of about 2 ml of water, the sample was applied to a cation exchange resin column (Biorad AG.AG50W-X4 to adsorbe the [^3 H]-guanosine and additionally about 2 ml of washing water for the sample was added to the column. The column was washed with about 20 ml of water, and the adsorbed [^3 H]-guanosine was eluted with 3 ml of 3N NH4 OH, and the elute was directly received by a vial. After an addition of 10 ml of an emulsified scintillation solution (ACS-II, AMERSHAM) the radio activity was measured by a scintillation counter LS7500 (Beckmann). The enzyme activity in the presence of calmodulin was taken as […], and a concentration of a test compound in μM which provides a 50% inhibition was expressed as IC50.

| IC50 | Compound |
| --- | --- |
| 53 µM | CN(C(Cc1cnc[nH]1)CN1CCN(c2ccccc2)CC1)S(=O)(=O)c1cccc2cnccc12 (centres unmarked) [Example 4, N-[1-(Imidazol-4(5)-Yl-Methyl)-2-(4 -Phenylpiperazinyl)Ethyl]-N-Methyl-5-Isoquinoline Sulfonamide] |
| 59 µM | O=C(C(Cc1ccc([N+](=O)[O-])cc1)NS(=O)(=O)c1cccc2cnccc12)N1CCN(c2ccccc2)CC1 (centres unmarked) [Example 11, 1-[N-(5-Isoquinolinesulfonyl)-P-Nitrophenylalanyl]-4-Phenylpiperazine] |
| 15 µM | CN(C(Cc1ccc(N)cc1)C(=O)N1CCN(c2ccccc2)CC1)S(=O)(=O)c1cccc2cnccc12 (centres unmarked) [Example 13, 1-[P-Amino-N-(5-Isoquinolinesulfonyl)-N-Methylalanyl]-4-Phenylpiperazine] |
| 43 µM | Cc1ccc(S(=O)(=O)Nc2ccc(CC(NS(=O)(=O)c3cccc4cnccc34)C(=O)N3CCN(c4ccccc4)CC3)cc2)cc1 (centres unmarked) [Example 15, 1-[N-(5-Isoquinolinesulfonyl)-P-(P-Toluenesulfonylamino)Phenylalanyl]-4-Phenylpiperazine] |
| 75 µM | Cc1ccc(COC2CCN(CC(Cc3ccc(O)cc3)NS(=O)(=O)c3cccc4cnccc34)CC2)cc1 (centres unmarked) [Example 85, N-{1-(P-Hydroxybenzyl)-2-{4-(P-Methylbenzyloxy)Piperidino]Ethyl}-Isoquinolinesulfonamide] |
| 63 µM | CN(C(Cc1ccc(OS(=O)(=O)c2cccc3cnccc23)cc1)CN1CCC(c2ccccc2)CC1)S(=O)(=O)c1cccc2cnccc12 (centres unmarked) [Example 92, N-{1-[p-(5-isoquinolinesulfonyloxy)benzyl]-2-(4-phenylpiperidino)ethyl}-N-methyl-5-isoquinolinesulfonamide] |
| 80 µM | O=S(=O)(NCCN(CC=Cc1ccc(Cl)cc1)Cc1ccc(O)cc1)c1cccc2cnccc12 [Example 194, N-{2-[4-Chloro-N-(4-Hydroxybenzyl)Cinnamylamino]ethyl}-5-Isoquinolinesulfonamide] |

system: superior mesenteric artery (contracted by potassium chloride); assay: Vessel Smooth Muscle Relaxation Action (V.R.); type: cell-based, rabbit; details: Oryctolagus cuniculus; concentration relaxing KCl-contracted strain to 50%; cumulative administration; read-out: V.R. (ED50)
Excerpt: The specimen was suspended by loading a strain in Krebs-Henseleit solution through which an oxygen gas containing 5% carbon dioxide was bubbled. The specimen was contracted by adding potassium chloride to maintain a predetermined strain. Thereafter, a test compound was cumulatively administrated.

| EC50 | Compound |
| --- | --- |
| 2.8 µM | CN(c1ccccc1NCC=Cc1cccnc1)S(=O)(=O)c1cccc2cnccc12 [Example 146, N-{2-[3-(3-pyridyl)allylamino)phenyl}-N-methyl-5-isoquinolinesulfonamide] |
| 4.7 µM | CC(C=Cc1ccc2c(c1)OCO2)NCCNS(=O)(=O)c1cccc2cnccc12 (centres unmarked) [Example 161] |
| 35 µM | CC(C=Cc1ccccn1)NCCNS(=O)(=O)c1cccc2cnccc12 (centres unmarked) [Example 162, N-{2-[1-Methyl-3-(2-Pyridyl)-2-Propenylamino]Ethyl}-5-Isoquinolinesulfonamide] |
| 31 µM | CC(C=Cc1ccncc1)NCCNS(=O)(=O)c1cccc2cnccc12 (centres unmarked) [Example 163, N-{2-[1-Methyl-3-(4-Pyridyl)-2-Propenylamino]ethyl}-5-Isoquinolinesulfonylamide] |
| 4.1 µM | CC(C=Cc1cccs1)NCCNS(=O)(=O)c1cccc2cnccc12 (centres unmarked) [Example 164, N-{2-[1-Methyl-3-(2-Thienyl)-2-Procenylamino]ethyl}-5-Isoquinolinesulfonamide] |
| 11 µM | CC(C=Cc1ccco1)NCCNS(=O)(=O)c1cccc2cnccc12 (centres unmarked) [Example 165, N-{2-[3-(2-Furyl)-1-Methyl-2-Propenylamino]Ethyl}-5-Isoquinolinesulfonamide] |
| 4.6 µM | COc1ccc(C=CC(C)NCCNS(=O)(=O)c2cccc3cnccc23)cc1 (stereo not drawn) [Example 169, N-2-(4-Methoxy-α-Methylcinnamylamino)ethyll-5-Isoquinolinesulfonamide] |
| 5.2 µM | CC(C=Cc1ccc(O)cc1)NCCNS(=O)(=O)c1cccc2cnccc12 (centres unmarked) [Example 170] |
| 5.4 µM | CC(C=Cc1ccccc1)NCCCNS(=O)(=O)c1cccc2cnccc12 (stereo not drawn) [Example 171, N-[3-(α-Methylcinnamylamino)Propyl]-5-Isoquinolinesulfonamide] |
| 11 µM | CN(C)c1ccc(C=CCNCCNS(=O)(=O)c2cccc3cnccc23)cc1 [Example 174] |
| 17 µM | COCCOCOc1ccc(C=CCNCCNS(=O)(=O)c2cccc3cnccc23)cc1 [Example 182, N-{2-[4-(2-Methoxyethoxy)Methoxycinnamylamino]Ethyl}-5-Isoquinolinesulfonamide] |
| 2.8 µM | O=S(=O)(NCCNCC=Cc1ccc(O)cc1)c1cccc2cnccc12 [Example 183, N-[2-(4-Hydroxycinnamylamino)ethyl]-5-Isoquinolinesulfonamide] |
| 0.21 µM | COc1cc(C=CCNCCNS(=O)(=O)c2cccc3cnccc23)cc(OC)c1OC [Example 185, N-[2-(3,4,5-Trimethoxycinnamylamino)ethyl]-5-Isoquinolinesulfonamide] |
| 4 µM | O=S(=O)(NCCCNCC=Cc1ccccc1)c1cccc2cnccc12 [Example 188, N-(3-Cinnamylaminopropyl)-5-Isoquinolinesulfonamide] |
| 0.2 µM | O=S(=O)(NCCN(CC#Cc1ccc(Cl)cc1)CC#Cc1ccc(Cl)cc1)c1cccc2cnccc12 [Example 189-II, N-{2-[Bis-(3-((4-Chlorophenyl))-2-Propynyl)Amino]Ethyl}-5-Isoquinolinesulfonamide] |
| 0.19 µM | CN(CC=Cc1ccc(Cl)cc1)CCNS(=O)(=O)c1cccc2cnccc12 [Example 190, N-[2-(4-Chloro-N-Methylcinnamylamino)ethyl]-5-Isoquinolinesulfonamide] |
| 3.2 µM | O=S(=O)(NCCNCC=Cc1ccccc1)c1cccc2cnccc12 [Example 201, N-(2-Cinnamylaminoethyl)-5-Isoquinolinesulfonamide.1/2 Fumarate] |
| 1.3 µM | CC(C=Cc1ccccc1)NCCNS(=O)(=O)c1cccc2cnccc12 (stereo not drawn) [Example 202, N-[2-(α-Methylcinnamylamino)Ethyl]-5-Isoquinolinesulfonamide 1/2 Fumarate] |

Continued, compound first:

| Compound | EC50 |
| --- | --- |
| CN(C(Cc1cnc[nH]1)CN1CCN(c2ccccc2)CC1)S(=O)(=O)c1cccc2cnccc12 (centres unmarked) [Example 4, N-[1-(Imidazol-4(5)-Yl-Methyl)-2-(4 -Phenylpiperazinyl)Ethyl]-N-Methyl-5-Isoquinoline Sulfonamide] | 12 µM |
| CN(C(Cc1ccc(N)cc1)C(=O)N1CCN(c2ccccc2)CC1)S(=O)(=O)c1cccc2cnccc12 (centres unmarked) [Example 13, 1-[P-Amino-N-(5-Isoquinolinesulfonyl)-N-Methylalanyl]-4-Phenylpiperazine] | 1.2 µM |
| CN(C(Cc1ccc(O)cc1)CN1CCC(O)CC1)S(=O)(=O)c1cccc2cnccc12 (centres unmarked) [Example 100] | 95 µM |
| COc1ccc(CC(CN2CCC(O)CC2)N(C)S(=O)(=O)c2cccc3cnccc23)cc1 (centres unmarked) [Example 101] | 29 µM |
| CC(=O)Oc1ccc(CC(CN2CCC(OC(C)=O)CC2)N(C)S(=O)(=O)c2cccc3cnccc23)cc1 (centres unmarked) [Example 102, N-[1-(P-Acetoxybenzyl)-2-(4-Acetoxypiperidino)Ethyl]-N-Methyl-5-Isoquinolinesulfonamide] | 24 µM |
| O=C(OCc1ccccc1)N1CCCN(CC(Cc2ccc(O)cc2)NS(=O)(=O)c2cccc3cnccc23)CC1 (centres unmarked) [Example 116, N-{2-(4-benzyloxycarbonylhomopiperazinyl)-1-(p-hydroxybenzyl)ethyl}-5-isoquinolinesulfonamide] | 1.5 µM |
| COc1ccc(CC(NS(=O)(=O)c2cccc3cnccc23)C(=O)N2CCCN(C(=O)Cc3ccccc3)CC2)cc1 (centres unmarked) [Example 120, 1-[N-(5-Isoquinolinesulfonyl)-O-Methyl]Tyrosyl-4-Phenylacetylhomopiperazine] | 19 ± 3 µM |
| O=C([C@H](Cc1ccc(O)cc1)NS(=O)(=O)c1cccc2cnccc12)N1CCCN(CCCc2ccccc2)CC1 [Example 124, 1-[N-(5-Isoquinolinesulfonyl)Tyrosyl]-4-(3-Phenylpropyl)Homopiperazine] | 11 µM |
| COc1ccc(N2CCN(CC(Cc3ccc(N4C(=O)c5ccccc5C4=O)cc3)NS(=O)(=O)c3cccc4cnccc34)CC2)cc1 (centres unmarked) [Example 125, N-{2-[4-(P-Methoxyphenyl)Piperazinyl]-1-(P-Phthalimidebenzyl)ethyl}-5-isoquinolinesulfonamide] | 9.2 µM |
| COc1ccc(N2CCN(CC(Cc3ccc(N)cc3)N(C)S(=O)(=O)c3cccc4cnccc34)CC2)cc1 (centres unmarked) [Example 128, N-{1-(p-aminobenzyl)-2-[4-(p-methoxyphenyl)piperazinyl]ethyl}-N-methyl-5-isoquinolinesulfonamide] | 1.8 µM |
| COc1ccc(N2CCN(CC(Cc3ccc(NS(=O)(=O)c4cccc5cnccc45)cc3)N(C)S(=O)(=O)c3cccc4cnccc34)CC2)cc1 (centres unmarked) [Example 129, N-{1-[p-(5-isoquinolinesulfonylaminobenzyl)]-2-[4-(p-methoxyphenyl)piperazinyl]ethyl}-N-methyl-5-isoquinolinesulfonamide] | 0.82 µM |
| COc1ccc(N2CCN(CC(Cc3ccc(NS(=O)(=O)c4cccc5cnccc45)cc3)NS(=O)(=O)c3cccc4cnccc34)CC2)cc1 (centres unmarked) [Example 130, N-{1-[p-(5-isoquinolinesulfonylaminobenzyl)]-2-[4-(p-methoxyphenyl]piperazinyl]ethyl}-5-isoquinolinesulfonamide] | 13 µM |
| COc1ccc(N2CCN(CC(Cc3ccc(N(C)S(=O)(=O)c4cccc5cnccc45)cc3)N(C)S(=O)(=O)c3cccc4cnccc34)CC2)cc1 (centres unmarked) [Example 131, N-[[1-{P-[N-5-Isoquinolinesulfonyl)-N-(Methylamino)Benzyl]}-2-[4-(P-Methoxyphenylpiperazinyl]Ethyl]]-N-Methyl-5-Isoquinolinesulfonamide] | 1.5 µM |
